Converted amounts (≈) assume the structure as drawn.
Columns and labels:
[1] = test system: Pseudomonas aeruginosa; experiment: Antibacterial activity against Pseudomonas aeruginosa PAO1 under muller hinton medium by CLSI protocol based microdilution method; format: functional
[2] = test system: Pseudomonas aeruginosa; experiment: Antibacterial activity against Pseudomonas aeruginosa PAO1 under succinate minimum medium by CLSI protocol based microdilution method; format: functional
[3] = test system: Pseudomonas aeruginosa; experiment: Antibacterial activity against Pseudomonas aeruginosa PAO1 under 1 uM FeCl3 medium by CLSI protocol based microdilution method; format: functional
[4] = test system: Pseudomonas aeruginosa; experiment: Antibacterial activity against Pseudomonas aeruginosa PAD07 under muller hinton medium by CLSI protocol based microdilution method; format: functional
[5] = test system: Pseudomonas aeruginosa; experiment: Antibacterial activity against Pseudomonas aeruginosa PAD07 under succinate minimum medium by CLSI protocol based microdilution method; format: functional
[6] = test system: Pseudomonas aeruginosa; experiment: Antibacterial activity against Pseudomonas aeruginosa PAD07 under 1 uM FeCl3 medium by CLSI protocol based microdilution method; format: functional
[7] = test system: Pseudomonas aeruginosa; experiment: Antibacterial activity against Pseudomonas aeruginosa AM85 under muller hinton medium by CLSI protocol based microdilution method; format: functional
[8] = test system: Pseudomonas aeruginosa; experiment: Antibacterial activity against Pseudomonas aeruginosa AM85 under succinate minimum medium by CLSI protocol based microdilution method; format: functional
[9] = test system: Pseudomonas aeruginosa; experiment: Antibacterial activity against Pseudomonas aeruginosa AM85 under 1 uM FeCl3 medium by CLSI protocol based microdilution method; format: functional
[10] = test system: Burkholderia pseudomallei; experiment: Antibacterial activity against Burkholderia pseudomallei BPS2020IRBA001 under muller hinton medium by CLSI protocol based microdilution method; format: functional
[11] = test system: Burkholderia pseudomallei; experiment: Antibacterial activity against Burkholderia pseudomallei BPS2020IRBA001 under succinate minimum medium by CLSI protocol based microdilution method; format: functional
[12] = test system: Burkholderia pseudomallei; experiment: Antibacterial activity against Burkholderia pseudomallei BPS2020IRBA001 under 1 uM FeCl3 medium by CLSI protocol based microdilution method; format: functional
[13] = test system: Burkholderia pseudomallei; experiment: Antibacterial activity against Burkholderia pseudomallei BPS2020IRBA002 under muller hinton medium by CLSI protocol based microdilution method; format: functional
[14] = test system: Burkholderia pseudomallei; experiment: Antibacterial activity against Burkholderia pseudomallei BPS2020IRBA002 under succinate minimum medium by CLSI protocol based microdilution method; format: functional
[15] = test system: Burkholderia pseudomallei; experiment: Antibacterial activity against Burkholderia pseudomallei BPS2020IRBA002 under 1 uM FeCl3 medium by CLSI protocol based microdilution method; format: functional
[16] = test system: Burkholderia pseudomallei; experiment: Antibacterial activity against Burkholderia pseudomallei K96243 under muller hinton medium by CLSI protocol based microdilution method; format: functional
[17] = test system: Burkholderia pseudomallei; experiment: Antibacterial activity against Burkholderia pseudomallei K96243 under succinate minimum medium by CLSI protocol based microdilution method; format: functional
[18] = test system: Burkholderia pseudomallei; experiment: Antibacterial activity against Burkholderia pseudomallei K96243 under 1 uM FeCl3 medium by CLSI protocol based microdilution method; format: functional
[19] = test system: Burkholderia pseudomallei; experiment: Antibacterial activity against Burkholderia pseudomallei BPS2020IRBA003 under muller hinton medium by CLSI protocol based microdilution method; format: functional
[20] = test system: Burkholderia pseudomallei; experiment: Antibacterial activity against Burkholderia pseudomallei BPS2020IRBA003 under succinate minimum medium by CLSI protocol based microdilution method; format: functional
[21] = test system: Burkholderia pseudomallei; experiment: Antibacterial activity against Burkholderia pseudomallei BPS2020IRBA003 under 1 uM FeCl3 medium by CLSI protocol based microdilution method; format: functional
[22] = test system: Burkholderia pseudomallei; experiment: Antibacterial activity against Burkholderia pseudomallei BPS2020IRBA004 under muller hinton medium by CLSI protocol based microdilution method; format: functional
[23] = test system: Burkholderia pseudomallei; experiment: Antibacterial activity against Burkholderia pseudomallei BPS2020IRBA005 under muller hinton medium by CLSI protocol based microdilution method; format: functional
[24] = test system: Burkholderia pseudomallei; experiment: Antibacterial activity against Burkholderia pseudomallei BPS2020IRBA005 under succinate minimum medium by CLSI protocol based microdilution method; format: functional
[25] = Antibacterial activity against Burkholderia pseudomallei BPS2020IRBA005 under 1 uM FeCl3 medium by CLSI protocol based microdilution method; format: functional; conditions: Burkholderia thailandensis
[26] = test system: Burkholderia thailandensis; experiment: Antibacterial activity against Burkholderia thailandensis E264 under muller hinton medium by CLSI protocol based microdilution method; format: functional
[27] = test system: Burkholderia thailandensis; experiment: Antibacterial activity against Burkholderia thailandensis E264 under succinate minimum medium by CLSI protocol based microdilution method; format: functional
[28] = test system: Burkholderia thailandensis; experiment: Antibacterial activity against Burkholderia thailandensis E264 under 1 uM FeCl3 medium by CLSI protocol based microdilution method; format: functional
[29] = test system: Burkholderia thailandensis; experiment: Antibacterial activity against Burkholderia thailandensis E264TS32C10 under muller hinton medium by CLSI protocol based microdilution method; format: functional
[30] = test system: Burkholderia thailandensis; experiment: Antibacterial activity against Burkholderia thailandensis E264TS32C10 under succinate minimum medium by CLSI protocol based microdilution method; format: functional
[31] = test system: Burkholderia thailandensis; experiment: Antibacterial activity against Burkholderia thailandensis E264TS32C10 under 1 uM FeCl3 medium by CLSI protocol based microdilution method; format: functional
[32] = test system: Burkholderia thailandensis; experiment: Antibacterial activity against Burkholderia thailandensis E264TS32C12 under muller hinton medium by CLSI protocol based microdilution method; format: functional
[33] = test system: Burkholderia thailandensis; experiment: Antibacterial activity against Burkholderia thailandensis E264TS32C12 under succinate minimum medium by CLSI protocol based microdilution method; format: functional
[34] = test system: Burkholderia thailandensis; experiment: Antibacterial activity against Burkholderia thailandensis E264TS32C12 under 1 uM FeCl3 medium by CLSI protocol based microdilution method; format: functional
[35] = test system: Burkholderia thailandensis; experiment: Antibacterial activity against Burkholderia thailandensis E264TS32C47 under muller hinton medium by CLSI protocol based microdilution method; format: functional
[36] = test system: Burkholderia thailandensis; experiment: Antibacterial activity against Burkholderia thailandensis E264TS32C47 under succinate minimum medium by CLSI protocol based microdilution method; format: functional
[37] = test system: Burkholderia thailandensis; experiment: Antibacterial activity against Burkholderia thailandensis E264TS32C47 under 1 uM FeCl3 medium by CLSI protocol based microdilution method; format: functional
[38] = test system: HepG2; experiment: Cytotoxicity against human HepG2 cells at 25 ug/ml after 48 hrs by CellTiter-Glo luminescent cell viability assay; format: toxicity, cell-based; conditions: hepg2, 48 h, dose 25 µg/ml
[39] = test system: Burkholderia pseudomallei; experiment: Antibacterial activity against Burkholderia pseudomallei BPS2020IRBA002 under succinate minimum medium after 48 hrs by CLSI protocol based microdilution method; format: functional
[40] = test system: Burkholderia pseudomallei; experiment: Antibacterial activity against Burkholderia pseudomallei K96243 under succinate minimum medium after 48 hrs by CLSI protocol based microdilution method; format: functional
[41] = test system: Burkholderia pseudomallei; experiment: Antibacterial activity against Burkholderia pseudomallei BPS2020IRBA005 under succinate minimum medium after 48 hrs by CLSI protocol based microdilution method; format: functional
[42] = test system: Burkholderia pseudomallei; experiment: Antibacterial activity against Burkholderia pseudomallei BPS2020IRBA005 under 1 uM FeCl3 medium after 48 hrs by CLSI protocol based microdilution method; format: functional
[43] = test system: Burkholderia thailandensis; experiment: Antibacterial activity against Burkholderia thailandensis E264TS32C10 under succinate minimum medium after 48 hrs by CLSI protocol based microdilution method; format: functional
[44] = test system: HepG2; experiment: Cytotoxicity against human HepG2 cells at 28 ug/ml after 48 hrs by CellTiter-Glo luminescent cell viability assay; format: toxicity, cell-based; conditions: hepg2, 48 h, dose 28 µg/ml
[45] = test system: Lipid bilayer; experiment: Binding affinity to bacterial inner membrane mimic PE/PG/CL/PC (60:20:10:10) assessed as maximum insertion pressure
[46] = test system: Lipopolysaccharide (LPS); experiment: Binding affinity to Pseudomonas aeruginosa lipopolysaccharide assessed as maximum insertion pressure
[47] = Stability in aqueous solution after 1 months; format: physicochemical; conditions: buffer, 730 h

O=C(O)c1cn(C2CC2)c2cc(N3CCN(C(=O)c4ccc(O)c(O)c4Cl)CC3)c(F)cc2c1=O showed an MIC [1] of 32 µg/mL (≈ 63.8 µM), an MIC [2] of 16 µg/mL (≈ 31.9 µM) and an MIC [3] of 16 µg/mL (≈ 31.9 µM). It also gave an MIC [4] of 32 µg/mL (≈ 63.8 µM), an MIC [5] of 1 µg/mL (≈ 1.99 µM) and an MIC [6] of 16 µg/mL (≈ 31.9 µM). The MIC [7] was > 128 µg/mL, the MIC [8] was > 128 µg/mL and the MIC [9] was > 128 µg/mL. For the same molecule, the MIC [10] was > 128 µg/mL, the MIC [11] was 128 µg/mL (≈ 255 µM) and the MIC [12] was 128 µg/mL (≈ 255 µM). For the same molecule, the MIC [13] was > 128 µg/mL, the MIC [14] was > 128 µg/mL and the MIC [15] was > 128 µg/mL. For the same molecule, the MIC [16] was 64 µg/mL (≈ 128 µM), the MIC [17] was 32 µg/mL (≈ 63.8 µM) and the MIC [18] was 16 µg/mL (≈ 31.9 µM). The MIC [19] was 128 µg/mL (≈ 255 µM), the MIC [20] was 128 µg/mL (≈ 255 µM) and the MIC [21] was > 128 µg/mL. The MIC [22] was > 128 µg/mL, the MIC [23] was > 128 µg/mL and the MIC [24] was > 128 µg/mL. For the same molecule, the MIC [25] was > 128 µg/mL, the MIC [26] was 128 µg/mL (≈ 255 µM) and the MIC [27] was 128 µg/mL (≈ 255 µM). The MIC [28] was 64 µg/mL (≈ 128 µM), the MIC [29] was > 128 µg/mL and the MIC [30] was > 128 µg/mL. For the same molecule, the MIC [31] was > 128 µg/mL, the MIC [32] was > 128 µg/mL and the MIC [33] was 128 µg/mL (≈ 255 µM). The MIC [34] was 128 µg/mL (≈ 255 µM), the MIC [35] was 128 µg/mL (≈ 255 µM) and the MIC [36] was 128 µg/mL (≈ 255 µM). The MIC [37] was 128 µg/mL (≈ 255 µM) and the Activity [38] was “Non-Toxic”.
For CC(OC(=O)c1cccc(O)c1O)OC(=O)N1CCN(c2cc3c(cc2F)c(=O)c(C(=O)O)cn3C2CC2)CC1 (centres undefined), the MIC [1] was 1 µg/mL (≈ 1.8 µM), the MIC [2] was 1 µg/mL (≈ 1.8 µM) and the MIC [3] was 1 µg/mL (≈ 1.8 µM). It also gave an MIC [4] of 0.25 µg/mL (≈ 0.45 µM), an MIC [5] of 0.25 µg/mL (≈ 0.45 µM) and an MIC [6] of 2 µg/mL (≈ 3.6 µM). The MIC [7] was > 128 µg/mL, the MIC [8] was > 128 µg/mL and the MIC [9] was > 128 µg/mL. It also gave an MIC [10] of 128 µg/mL (≈ 230 µM), an MIC [11] of 2 µg/mL (≈ 3.6 µM) and an MIC [12] of 32 µg/mL (≈ 57.6 µM). It also gave an MIC [13] of 32 µg/mL (≈ 57.6 µM), an MIC [15] of 8 µg/mL (≈ 14.4 µM) and an MIC [16] of 8 µg/mL (≈ 14.4 µM). It also gave an MIC [18] of 4 µg/mL (≈ 7.2 µM), an MIC [19] of 32 µg/mL (≈ 57.6 µM) and an MIC [20] of 8 µg/mL (≈ 14.4 µM). It also gave an MIC [21] of 16 µg/mL (≈ 28.8 µM), an MIC [22] of 32 µg/mL (≈ 57.6 µM) and an MIC [23] of 128 µg/mL (≈ 230 µM). It also gave an MIC [26] of 32 µg/mL (≈ 57.6 µM), an MIC [27] of 8 µg/mL (≈ 14.4 µM) and an MIC [28] of 8 µg/mL (≈ 14.4 µM). For the same molecule, the MIC [29] was > 128 µg/mL, the MIC [31] was 32 µg/mL (≈ 57.6 µM) and the MIC [32] was 64 µg/mL (≈ 115 µM). The MIC [33] was 4 µg/mL (≈ 7.2 µM), the MIC [34] was 16 µg/mL (≈ 28.8 µM) and the MIC [35] was 32 µg/mL (≈ 57.6 µM). The MIC [36] was 4 µg/mL (≈ 7.2 µM), the MIC [37] was 8 µg/mL (≈ 14.4 µM) and the MIC [39] was 8 µg/mL (≈ 14.4 µM). The MIC [40] was 2 µg/mL (≈ 3.6 µM), the MIC [41] was 8 µg/mL (≈ 14.4 µM) and the MIC [42] was 16 µg/mL (≈ 28.8 µM). For the same molecule, the MIC [43] was 32 µg/mL (≈ 57.6 µM), the Activity [44] was “Non-Toxic” and the Activity [45] was 44 mN/meter. The Activity [46] was 30 mN/meter and the Stability [47] was “Stable”.

— ChEMBL document CHEMBL5335767, “Synthesis and study of new siderophore analog-ciprofloxacin conjugates with antibiotic activities against Pseudomonas aeruginosa and Burkholderia spp” (Eur J Med Chem, 2023)
